Measurements: US9169231B2, “Anti-obesity agent comprising compound containing benzotropolone ring” (SUNTORY HOLDINGS LIMITED, priority 2009, dated 2015)
Read-outs that look alike come from different tables or passages of the source.

Tests used:
Type in all cases: biochemical
[1] = biological target: T1, porcine pancreatic lipase (Sus scrofa, UniProt P00591); experiment: Measurement of lipase inhibitory activity (Example 6; 4-MUO substrate, fluorescence)
T1 construct: purchased Sigma-Aldrich Corp
T1 sequence (P00591 1-450): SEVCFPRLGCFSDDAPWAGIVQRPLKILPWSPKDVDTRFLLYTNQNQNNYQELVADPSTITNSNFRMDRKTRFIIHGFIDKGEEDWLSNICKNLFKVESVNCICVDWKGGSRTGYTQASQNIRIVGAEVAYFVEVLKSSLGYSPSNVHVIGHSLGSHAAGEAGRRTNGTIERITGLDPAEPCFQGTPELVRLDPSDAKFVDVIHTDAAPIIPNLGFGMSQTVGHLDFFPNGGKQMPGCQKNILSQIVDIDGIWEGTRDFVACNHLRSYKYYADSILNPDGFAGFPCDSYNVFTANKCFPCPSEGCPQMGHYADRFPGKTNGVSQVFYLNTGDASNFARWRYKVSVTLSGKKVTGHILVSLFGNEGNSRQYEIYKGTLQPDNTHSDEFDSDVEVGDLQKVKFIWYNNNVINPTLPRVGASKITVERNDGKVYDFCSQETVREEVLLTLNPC
Method: The measurement of lipase activity was performed by using as a substrate the oleate ester of fluorescent 4-methylumbelliferone (4-MUO; Sigma-Aldrich Corp.) to measure the fluorescence of 4-methylumbelliferone produced by a reaction. […] The following were subjected to an enzymatic measurement: the substrate 4-MUO which was dissolved into a 0.1M DMSO solution followed by dilution of the solution 4000-fold with the above buffer; and as a lipase, porcine pancreatic lipase (Sigma-Aldrich Corp.) which was prepared as a 400 U/ml solution by using the above buffer likewise.
(§1) An enzymatic reaction was initiated by the following steps under 25° C. condition: adding to a 96-well microplate 50 μl of a 4-MUO buffer solution and 25 μl of distilled water (or an aqueous sample solution) for each well; mixing them; and then adding 25 μl of a lipase buffer solution to each well. After a 30-minute reaction, 100 μl of a 0.1M citric acid buffer (pH4.2) was added to terminate the reaction, and the fluorescence of 4-methylumbelliferone (excitation wavelength: 355 nm, fluorescence wavelength: 460 nm) produced by the reaction was measured with a fluorescence plate reader (Fluoroskan Asent CF from Labsystems, Inc.)

alfa-glucosidase = experiment: Measurement of alfa-glucosidase inhibitory activity (Example 11; p-nitrophenyl-alfa-D-glucopyranoside, A405)
Method: A […] sodium phosphate buffer was prepared by mixing a 0.1M NaH2PO4-2H2O and a 0.1M Na2HPO4.12H2O and adjusting the mixture to pH7.0, and thereto 2 g/L of bovine serum albumin (Nacalai Tesque, Inc., F-V, pH5.2, 96% purity) and 0.2 g/L of NaN3 (Nacalai Tesque, Inc., a special grade reagent) were added. To prepare an enzyme solution, alfa-glucosidase (Wako Pure Chemical Industries, Ltd., yeast-derived, 100 units/mg) was dissolved in the above buffer so as to achieve 0.5 units/mg protein/ml (100 μg/20 ml). To prepare a substrate solution, p-nitrophenyl-alfa-D-glucopyranoside (Nacalai Tesque, Inc., a special grade reagent) was dissolved in the above buffer so as to achieve 5 mM concentration (7.525 mg/5 ml).
Among the samples used for the assays, epigallocatechin-3-O-gallate (Compound 13: EGCG), a positive control, was a product from Wako Pure Chemical Industries, Ltd., and Compounds 1, 3, 4, 5, 11, 12, 14, and 15 were products that were synthesized and purified in Example 1, 2, or 7.
These samples were adjusted so as to obtain 10 mg/ml of DMSO and the solution was diluted 2-fold in 6 steps. Using a 96-well microplate, 45 μL of the enzyme solution was added to 10 μL of the sample solution. After preincubation at 37° C. for 5 minutes, 45 μL of the substrate solution was added and absorbance at 405 nm (A405 nm) was measured. After incubation at 37° C. for 5 minutes, the absorbance A405 nm was measured. Percent inhibition was calculated as a difference in A405 nm from a solution in which only DMSO was added as a control instead of a sample, and two consecutive measurements were performed for activity of each compound.

[2] = biological target: T2, porcine pancreatic lipase (Type VI-S) (Sus scrofa, UniProt P00591); experiment: Measurement of lipase activity (Example 10; 4-MUO substrate 7.5 μM, increased DMSO); details: Example 10 method; for IC50: substrate 7.5 μM, 25° C., 30-minute reaction, read-out: Lipase Inhibitory Activity per Mole IC50
T2 construct: purchased Sigma-Aldrich Corp. Type VI-S
T2 sequence (P00591 1-450): T1 sequence (P00591 1-450)
Method: The measurement of lipase activity was performed by using as a substrate the oleate ester of fluorescent 4-methylumbelliferone (4-MUO; Sigma-Aldrich Corp.) to measure the fluorescence of 4-methylumbelliferone produced by a reaction. In the measurement, 13 mM Tris-HCl (pH8.0) containing 150 mM NaCl and 1.36 mM CaCl2 was used as a buffer. The following were subjected to an enzymatic measurement: the substrate 4-MUO which was dissolved into a 0.01M DMSO solution followed by dilution of the solution 667-fold with the above buffer; and as a lipase, porcine pancreatic lipase (Sigma-Aldrich Corp.: Type VI-S) which was prepared as a 400 U/ml solution by using the above buffer likewise.
as §1, with “μl of 4-MUO buffer” for “μl of a 4-MUO buffer”, “water (or aqueous sample” for “water (or an aqueous sample”, “each well. […] After a” for “each well. After a”, “μl of 0.1M citric” for “μl of a 0.1M citric”, “from Labsystems, Inc.).” for “from Labsystems, Inc.)”
The inhibitory activities of test samples were determined as IC50 (μM), a sample […] which produces 50% inhibition, relative to the activity of a control (distilled water).

[3] = Example 6 method, substrate 12.5 μM, 25° C., 30-minute reaction, read-out: Lipase Inhibitory Activity per mole IC50

| Compound | IC50 [1, 3] [µM] | IC50 (alfa-glucosidase; 37° C., 5 minutes incubation) [µM] | IC50 [2] [µM] | also measured |
| --- | --- | --- | --- | --- |
| O=c1c(O)cccc2cc(O)c(O)c(O)c12 [Compound 1, purprogallin] | 0.413 | 1240 |  |  |
| O=C(O[C@@H]1Cc2c(O)cc(O)cc2O[C@@H]1c1ccc(O)c(O)c1)c1cc(O)c(=O)c2c(O)c(O)c(O)cc2c1 [Compound 12, (2R,3R)-2-(3,4-dihydroxyphenyl)-5,7-dihydroxychroman-3-yl2,3,4,6-tetrahydroxy-5-oxo-5H-benzo[7]annulen-8-carboxylate] | 0.207 | 159 | 0.096 | Lipase inhibitory activity (in words, compared with EGCG) [2]: stronger activity than a positive control, EGCG; alfa-glucosidase inhibitory activity (in words) (alfa-glucosidase): particularly strong activity |
| Oc1cccc(O)c1O [pyrogallol, reference compound] | 17.3 |  |  |  |
| O=C(O[C@@H]1Cc2c(O)cc(O)cc2O[C@@H]1c1cc(O)c(=O)c2c(O)c(O)cc([C@@H]3Oc4cc(O)cc(O)c4C[C@H]3OC(=O)c3cc(O)c(O)c(O)c3)c2c1)c1cc(O)c(=O)c2c(O)c(O)cc([C@H]3Oc4cc(O)cc(O)c4C[C@H]3OC(=O)c3cc(O)c(O)c(O)c3)c2c1 (stereo in doubt) [Compound 7, theaflavin digallate trimer 1 (TFdiGA-tri1)] | 0.135 |  |  |  |
| epitheaflagallin [Compound 3, reference compound] |  |  | 0.956 | alfa-glucosidase inhibitory activity IC50 (alfa-glucosidase; 37° C., 5 minutes incubation): No |
| O=C(O[C@@H]1Cc2c(O)cc(O)cc2O[C@@H]1c1cc(O)c(=O)c2c(O)c(O)cc([C@@H]3Oc4cc(O)cc(O)c4C[C@H]3OC(=O)c3cc(O)c(=O)c4c(O)c(O)cc([C@H]5Oc6cc(O)cc(O)c6C[C@H]5OC(=O)c5cc(O)c(O)c(O)c5)c4c3)c2c1)c1cc(O)c(O)c(O)c1 (stereo in doubt) [Compound 8, theaflavin digallate trimer 2 (TFdiGA-tri2)] | 0.138 |  |  |  |
| O=C(O[C@@H]1Cc2c(O)cc(O)cc2O[C@@H]1c1cc(=O)c(O)c2c(O)c(O)c(O)cc2c1)c1cc(O)c(O)c(O)c1 [Compound 4, epitheaflagallin-3-O-gallate, reference compound] |  | 180 | 0.125 |  |
| O=c1c(O)cccc2c([C@H]3Oc4cc(O)cc(O)c4C[C@H]3O)cc(O)c(O)c12 [Compound 10, theaflavanin] | 0.984 |  |  |  |
| O=C(O)c1cc(O)c(=O)c2c(O)c(O)cc([C@H]3Oc4cc(O)cc(O)c4C[C@H]3OC(=O)c3cc(O)c(O)c(O)c3)c2c1 [Compound 11, epitheaflavic acid-3-O-gallate] | 0.266 | 287 |  |  |
| O=C(O)c1cc(O)c(=O)c2c(O)c(O)cc([C@H]3Oc4cc(O)cc(O)c4C[C@H]3O)c2c1 [Compound 9, epitheaflavic acid] | 4.63 |  |  |  |
| O=C(O)c1cc(O)c(=O)c2c(O)c(O)c(O)cc2c1 [Compound 2, purprogallin carboxylic acid] |  |  |  | IC50 [1]: 4.16 µM |
| (−)-epigallocatechin-3-O-gallate [Compound 13, reference compound] | 0.349 | 485 | 0.349 |  |
| O=C(O[C@@H]1Cc2c(O)cc(O)cc2O[C@@H]1c1cc(O)c(O)c2c(=O)c(O)cccc12)c1cc(O)c(O)c(O)c1 [Compound 14, theaflavanin 3-O-gallate] |  | 196 | 0.168 | Lipase inhibitory activity (in words, compared with EGCG) [2]: stronger activity than a positive control, EGCG; alfa-glucosidase inhibitory activity (in words) (alfa-glucosidase): particularly strong activity |
| O=C(O[C@@H]1Cc2c(O)cc(O)cc2O[C@@H]1c1cc(O)c(=O)c2c(O)c(O)ccc2c1)c1cc(O)c(O)c(O)c1 [Compound 15, EGCG-catechol] |  | 103 | 0.104 | Lipase inhibitory activity (in words, compared with EGCG) [2]: stronger activity than a positive control, EGCG |
| O=C(O[C@@H]1Cc2c(O)cc(O)cc2O[C@@H]1c1ccc(O)c(O)c1)c1cc(O)c(=O)c2c(O)c(O)cc([C@H]3Oc4cc(O)cc(O)c4C[C@H]3OC(=O)c3cc(O)c(O)c(O)c3)c2c1 [Compound 5, theaflavate A] | 0.202 | 116 |  |  |
| O=C(O[C@@H]1Cc2c(O)cc(O)cc2O[C@@H]1c1cc(O)c(=O)c2c(O)c(O)cc([C@@H]3Oc4cc(O)cc(O)c4C[C@@H]3O)c2c1)c1cc(O)c(=O)c2c(O)c(O)cc([C@H]3Oc4cc(O)cc(O)c4C[C@H]3O)c2c1 (stereo in doubt) [Compound 6, theadibenzotropolone A] | 0.178 |  |  |  |
